Experiment: Membrane permeability in H-cell
Assay type: physicochemical
Conditions: Selemion DSV membrane
Method: 0.33 M Dex-Vi in pure water was separated by an anion-exchange membrane (DSV) from 1 M NaCl in an H-cell. […] The cell was agitated on a shaker to partially simulate flow dynamics. Aliquots of the receiving end (1 M NaCl side) were taken every few days, and the removed volume was replaced with 1 M NaCl. The concentration of Dex-Vi in the aliquot was determined by measuring the absorbance at 285 nm using a UV-Vis spectrophotometer. The concentration as a function of time data was then used to calculate the permeability constant of Dex-Vi. (Kwabi, D. G. et al., Joule 2018, 2, 1894-1906)
Permeability was calculated using Eqn. 4 which follows Fick's Law, where P is the permeability in cm^2·s^−1, A is the membrane area in cm^2, t is elapsed time in seconds, Ct is the concentration (mol·cm^−3) of Dex-Vi on the receiving side at time t, C0 is the initial concentration of Dex-Vi on the donating side, Vo is the volume of one side of the H-cell, and l is the membrane thickness in cm.

Question: With C[N+](C)(C)CC(O)C[n+]1ccc(-c2cc[n+](CC(O)C[N+](C)(C)C)cc2)cc1 (stereo not shown) [Dex-Vi, bis(3-trimethylammonio-2-hydroxy)propyl viologen tetrachloride] as the compound, how does the permeance read?
Answer: 2.3×10^−11 cm^2·s^−1

Source: patent publication US12291513B2, “Pyridinium derivatives made by hydrothermal synthesis for use as anolytes in electrochemical cells” (Wisconsin Alumni Research Foundation, priority 2021, dated 2025)
